A word on the pIC50: it is the negative decadic logarithm of the IC50, by convention in mol/L.

Assay [1] has as its system human malignant melanoma cell line A-375. Nature of the assay: CellTiterBlue cell viability assay, malignant melanoma cell line A-375. It counts as cell-based. The note with it: for pIC50: Homo sapiens, A-375 cells, 24 h treatment, CellTiterBlue, read-out: IC50 against A-375 cells. As for the experimental part:
(§1) The crude extracts were initially tested in vitro against 5 human cancer cell lines: colorectal adenocarcinoma cell line HT-29 (DSMZ, Braunschweig, Germany), malignant melanoma cell line A-375 (CLS, Eppelheim, Germany), colon cancer cell line HCT-116 (DSMZ), lung carcinoma cell line A-549 (CLS, Eppelheim, Germany), human breast cancer line MB-231 (CLS), and the non-cancerous human keratinocyte line HaCaT (CLS) at a concentration of 100 µg/mL. The antitumoral activity of the crude extracts was evaluated by monitoring the metabolic activity using the CellTiterBlue Cell Viability Assay (Promega, Mannheim, Germany). HT-29 and HaCaT cells were cultivated in RPMI medium, A-549 and MB-231 cells in DMEM: Ham’s F12 medium (1:1) supplemented with 15 mM HEPES and A-375 and HCT-116 cells in DMEM medium supplemented with 4.5 g/L D-Glucose and 110 mg/L sodium pyruvate. All media were supplemented with L-Glutamine, 10% fetal bovine serum, 100 U/mL penicillin, and […] streptomycin. The cultures were maintained at 37 °C under a humidified atmosphere and 5% CO2. The cell lines were transferred every 3 or 4 days. For experimental procedure, the cells were seeded in 96 well plates at a concentration of 10,000 cells per well. A stock solution of 40 mg/mL in DMSO was prepared of each extract. After 24 h incubation, the medium was removed from the cells and 100 µL fresh medium containing the test samples was added. Each sample was prepared in duplicate once. Doxorubicin as a standard therapeutic drug was used as positive control, 0.5% DMSO and growth media were used as controls. Following compound addition, plates were cultured at 37 °C for 24 h. Afterwards, the assay was performed according to the manufacturer’s instructions and measured using the microplate reader Tecan Infinite M200 at excitation 560 nm and emission of 590 nm. For determination of IC50 values, a dilution series of the extracts was prepared and tested, as described before for the crude extract.

The test system of assay [2] is non-cancerous human keratinocyte cell line HaCaT. Nature of the assay: CellTiterBlue cell viability assay, non-cancerous keratinocyte line HaCaT (general toxicity). Format: cell-based. The note with it: HaCaT cells, 24 h treatment, read-out: IC50 against HaCaT cells. As for the experimental part:
as §1

In assay [3] the test system is Plasmodium falciparum 3D7. Also on record: method as in PMID 28901329. The conditions noted are these: cited from earlier work.
The test system of another assay is cancer cell lines. Also on record: method as in PMID 28901329. The note with it: cited from earlier work.

pIC50: −log10 of the molar value.

Consider `CC1=CC2CC(C)CCC2C2(C)C(=O)C3(C(=O)C(CO)N(C)C3=O)C(C=CC(C)O)C12` (stereo not drawn) [Compound 1, Pyrenosetin A], for which the pIC50 is 5.55 in assay [1] and 5.38 in assay [2].
For the compound `CC1=C[C@H]2C[C@@H](C)CC[C@@H]2[C@@]2(C)C(=O)[C@@]3(C(=O)[C@@H](CO)N(C)C3=O)[C@H](/C=C/[C@@H](C)O)[C@@H]12` [Compound 2, Pyrenosetin B], the “selectivity index (IC50 value against HaCaT cells / IC50 value against A-375 cells)” value in assay [1] (HaCaT vs A-375) is on record as “around 5.6”. For the same compound, the pIC50 in assay [1] was 5.20; in assay [2] it was 4.46.
On to `CC(=O)/C=C/[C@@H]1[C@H]2C(C)=C[C@H]3C[C@@H](C)CC[C@@H]3[C@@]2(C)C(=O)[C@@]12C(=O)[C@@H](CO)N(C)C2=O` [Compound 3, Pyrenosetin C], for which the pIC50 in assay [1] is 3.85; in assay [2] it was 3.84.
On the same counts, the results for `C/C=C/C=C/[C@H]1C(C)=C[C@H]2C[C@@H](C)CC[C@@H]2[C@@]1(C)/C(O)=C1/C(=O)[C@@H](CO)N(C)C1=O` [Compound 4, Phomasetin] are 4.43 and 4.35.
As to `COc1cccc2c1C(=O)c1c(O)c3c(c(O)c1C2=O)C[C@@](O)(C(=O)CO)C[C@@H]3O[C@H]1C[C@H](N)[C@H](O)[C@H](C)O1` [Doxorubicin, reference compound], the pIC50 in assay [1] is 6.22; in assay [2], 4.66.
Take `CC(=O)/C=C/[C@H]1[C@H](C(=O)N(C)[C@H](CO)C(=O)O)C(=O)[C@@]2(C)[C@@H]1C(C)=C[C@H]1C[C@@H](C)CC[C@@H]12` [wakodecaline B]: in assay [3], the antimalarial activity result was “moderate antimalarial activity”. Further, the “activity against cancer cell lines” value in the assay with cancer cell lines was “inactive”.
With wakodecaline A, in assay [3], the antimalarial activity entry is “moderate antimalarial activity”. In the assay with cancer cell lines, the “activity against cancer cell lines” value was “inactive”.

(Values after publication PMC7024310, “Pyrenosetins A–C, New Decalinoylspirotetramic Acid Derivatives Isolated by Bioactivity-Based Molecular Networking from the Seaweed-Derived Fungus Pyrenochaetopsis sp. FVE-001” (Marine Drugs, 2020).)
